# Earlier results, collected in US11471445B2, “Compositions for the prevention and treatment of acute renal injury” (AKI Therapeutics ApS, priority 2017, dated 2022).
# Columns and labels:
# [1] = system: IRI; details: in vivo
# [2] = system: cerebral ischemia-reperfusion injury; details: mice
# [3] = system: hepatic IRI; details: rats, pretreatment
# [4] = system: rat heart; details: pretreatment
# [5] = 30 min after intravenous injection
molecule,measurement,setting,value
"COc1ccc([C@@H]2CC(=O)c3c(O)cc(O[C@@H]4O[C@H](CO[C@@H]5O[C@@H](C)[C@H](O)[C@@H](O)[C@H]5O)[C@@H](O)[C@H](O)[C@H]4O)cc3O2)cc1O [Hesperidin, hesperidin]",effect on IRI / ischemia,[1],protective effects on IRI in various organs
CC(C)[C@]12O[C@H]1[C@@H]1O[C@]13[C@]1(O[C@H]1C[C@H]1C4=C(CC[C@@]13C)C(=O)OC4)[C@@H]2O [Triptolide],water solubility,,very low water solubility
COc1ccc(-c2cc(=O)c3c(O)cc(O[C@@H]4O[C@H](CO[C@@H]5O[C@@H](C)[C@H](O)[C@@H](O)[C@H]5O)[C@@H](O)[C@H](O)[C@H]4O)cc3o2)cc1O [diosmin],effect on cerebral ischemia-reperfusion injury,[2],ameliorates the consequences of IRI
same,consequences of hepatic IRI,[3],ameliorates the consequences of IRI
same,consequences of IRI in ex vivo rat heart,[4],ameliorates the consequences of IRI
triptolide-lysozyme conjugate: Triptolide conjugated to lysozyme by an ester linkage with a succinic acid spacer,renal concentration of conjugate relative to equivalent dose of drug,[5],20 fold
β-escin,effect on IRI / ischemia,[1],ameliorates the effects of focal cerebral ischemia
